How the values were obtained:
EphA2 [1] = target: T1, EphA2 (Homo sapiens, UniProt P29317); test: EphA2 tyrosine phosphorylation in PC3 cells; assay type: cell-based; parameters: endogenous in cells; host or cells: PC3
Method: FIGS. 9A-9G. A. PC3 cells pretreated for 15 min with the indicated concentrations of compound 1 or compound 2 were stimulated with 0.5 μg/mL ephrin-A1 Fc (+) or Fc as a control (−) for 20 min in the continued presence of the compounds. EphA2 immunoprecipitates were probed with anti-phosphotyrosine antibody (PTyr) and reprobed for EphA2. C indicates immunoprecipitations performed with control antibodies. B. Histogram showing the levels of EphA2 phosphorylation normalized to the amount of immunoprecipitated EphA2. Error bars indicate standard error from 3 experiments. Receptor phosphorylation levels were compared with those in the ephrin-stimulated cells by one-way ANOVA and Dunnett's post test. *P<0.05 and *P<0.01. C. PC3 cells stimulated with compound 1 as in (A) were stained with rhodamine-phalloidin to label actin filaments and DAPI to label nuclei. DMSO was used as a control (0 μM). […] Cells having rounded shape and area less than 20% of the mean value obtained for the Fc stimulated cells were scored as retracting. […]
Measurement of Receptor Tyrosine Phosphorylation in Cells—HT22 neuronal cells, which endogenously express EphA4, are derived from immortalized mouse hippocampal neurons (Li et al. (1997) Neuron 19(2), 453-463). […] The protein concentration was calculated using the BCA protein assay kit (Pierce Biotecnology, Rockford, Ill.). […]
Target sequence in this assay (P29317 24-976): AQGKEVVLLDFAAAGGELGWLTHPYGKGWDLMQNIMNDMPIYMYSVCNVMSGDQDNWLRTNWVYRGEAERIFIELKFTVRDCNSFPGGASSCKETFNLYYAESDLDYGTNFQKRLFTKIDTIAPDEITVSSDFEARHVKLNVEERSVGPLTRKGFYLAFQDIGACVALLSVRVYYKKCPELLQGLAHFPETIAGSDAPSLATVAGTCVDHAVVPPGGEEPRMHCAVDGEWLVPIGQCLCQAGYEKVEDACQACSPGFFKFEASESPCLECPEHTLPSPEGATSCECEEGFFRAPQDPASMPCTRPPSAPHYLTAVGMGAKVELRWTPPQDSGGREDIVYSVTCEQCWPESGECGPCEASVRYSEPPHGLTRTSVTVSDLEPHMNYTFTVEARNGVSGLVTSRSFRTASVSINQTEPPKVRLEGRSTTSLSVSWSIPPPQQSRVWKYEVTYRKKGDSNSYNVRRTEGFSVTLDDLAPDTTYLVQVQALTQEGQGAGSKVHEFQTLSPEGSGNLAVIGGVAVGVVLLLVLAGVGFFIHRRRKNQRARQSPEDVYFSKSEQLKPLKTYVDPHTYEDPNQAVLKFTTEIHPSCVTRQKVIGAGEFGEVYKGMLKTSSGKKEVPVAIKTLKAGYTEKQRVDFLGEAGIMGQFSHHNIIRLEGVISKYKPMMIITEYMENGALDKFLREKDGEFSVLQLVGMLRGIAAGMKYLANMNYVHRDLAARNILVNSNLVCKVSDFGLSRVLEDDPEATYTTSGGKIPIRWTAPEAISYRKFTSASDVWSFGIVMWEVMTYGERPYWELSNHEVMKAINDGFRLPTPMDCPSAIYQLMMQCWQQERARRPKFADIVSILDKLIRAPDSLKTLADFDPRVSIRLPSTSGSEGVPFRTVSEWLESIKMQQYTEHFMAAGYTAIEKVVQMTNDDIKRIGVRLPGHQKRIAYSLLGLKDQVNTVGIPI

EphA2 [2] = target: T1, EphA2; test: ELISA, EphA2-ephrin-A5 binding; settings: assuming competitive inhibition; read-out: Ki for inhibition of EphA2-ephrin-A5 binding (Cheng-Prusoff)
Method: ELISA Assays and K, Determination—Protein A-coated wells (Pierce Biotecnology, Rockford, Ill.) were used to immobilize ephrin Fc fusion proteins (R&D Systems, Minneapolis, Minn.). Compounds at different concentrations were incubated with EphA4 AP (Cheng and Flanagan, (1994) Cell 79(1), 157-168) or EphA2 AP (Koolpe et al. (2002) J Biol Chem 277(49), 46974-46979) for 3 hours. Alternatively, Eph receptor Fc fusion proteins were immobilized on protein A-coated wells and ephrin-A5 AP (Menzel et al. (2001) Developmental Biology 230(1), 74-88) or ephrin-B2 AP (GeneHunter, Nashville, Tenn.) were added with the compounds. The amount of bound AP-fusion protein was quantified using pNPP as the substrate. […]
To calculate the inhibition constant (KO values, the binding of ephrin-A5 AP to EphA4 Fc immobilized on protein A-coated wells was measured in the absence and in the presence of the compounds at different concentrations. Each data set was fitted to the Michaelis-Menten equation: B=Bmax [S]/(KD+[S]), where [S] is the concentration of ephrin AP fusion protein and KD is the dissociation constant observed in the absence or in the presence of the compound, using non linear regression and the program GraphPad (Prism). To evaluate whether the inhibition is competitive, noncompetitive or uncompetitive the KD and Bmax values were determined at different compound concentrations. […]
Target sequence in this assay (P29317 25-534 limits assumed, species assumed): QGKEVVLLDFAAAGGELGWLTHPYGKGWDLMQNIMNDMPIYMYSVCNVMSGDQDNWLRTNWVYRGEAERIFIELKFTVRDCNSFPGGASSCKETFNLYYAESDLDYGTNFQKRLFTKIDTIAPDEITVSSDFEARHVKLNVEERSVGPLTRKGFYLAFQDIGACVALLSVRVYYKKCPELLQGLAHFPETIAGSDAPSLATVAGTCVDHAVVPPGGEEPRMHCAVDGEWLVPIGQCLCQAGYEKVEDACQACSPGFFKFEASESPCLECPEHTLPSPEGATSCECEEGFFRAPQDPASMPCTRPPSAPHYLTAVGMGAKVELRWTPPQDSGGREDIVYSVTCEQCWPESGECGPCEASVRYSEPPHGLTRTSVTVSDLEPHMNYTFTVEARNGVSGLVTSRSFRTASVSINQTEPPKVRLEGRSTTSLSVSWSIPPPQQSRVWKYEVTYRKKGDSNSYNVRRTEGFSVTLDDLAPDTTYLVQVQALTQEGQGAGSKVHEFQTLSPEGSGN

SMILES	EphA2 activation following stimulation with ephrin-A1 Fc (EphA2 [1])	Ki (EphA2 [2])
Cc1ccc(C)n1-c1ccc(C(=O)O)c(O)c1 [compound 1, 4-(2,5-dimethyl-pyrrol-1-yl)-2-hydroxy-benzoic acid]	blocked	11 to 14 µM
Cc1ccc(C)n1-c1ccc(O)c(C(=O)O)c1 [compound 2, 5-(2,5 dimethyl-pyrrol-1-yl)-2-hydroxy-benzoic acid]	blocked	10 to 13 µM

From patent US20100256214A1, “EPH RECEPTOR LIGANDS AND METHODS OF USE” (Burnham Institute for Medical Research, priority 2009, published 2010)
